Source: patent publication US20240217978A1 (CHONG KUN DANG PHARMACEUTICAL CORP., priority 2021, published 2024)

Molecular target: human adenosine A2a receptor (Homo sapiens (Human), UniProt P29274)
Assay: A2a receptor binding affinity, [3H]-NECA radioligand binding test
Conditions: [3H]-NECA 37 nM; membrane from HEK-293 cells transfected with human adenosine A2a receptor
In short: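 IC50 values (μM) come from displacement of [3H]-NECA, used at 37 nM final, on human A2a receptor membranes from transfected HEK-293 cells. Incubation lasted one hour at room temperature in Tris/MgCl2/EDTA buffer, pH 7.4; filter-bound radioactivity was counted by scintillation.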

Sequence of human adenosine A2a receptor (P29274 whole entry): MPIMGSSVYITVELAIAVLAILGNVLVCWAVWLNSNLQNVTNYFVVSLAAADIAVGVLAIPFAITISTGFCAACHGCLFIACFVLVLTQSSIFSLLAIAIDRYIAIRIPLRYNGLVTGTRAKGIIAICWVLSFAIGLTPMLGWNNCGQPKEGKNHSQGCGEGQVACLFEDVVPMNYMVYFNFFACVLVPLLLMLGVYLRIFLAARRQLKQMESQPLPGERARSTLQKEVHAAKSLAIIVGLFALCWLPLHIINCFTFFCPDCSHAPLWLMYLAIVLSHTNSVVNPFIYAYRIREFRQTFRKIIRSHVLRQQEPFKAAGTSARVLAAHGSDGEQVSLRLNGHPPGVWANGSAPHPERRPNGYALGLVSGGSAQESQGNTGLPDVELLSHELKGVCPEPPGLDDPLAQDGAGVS

Row | Compound | IC50 [nM]
1 | Nc1nc(N2CCC[C@H]2C(=O)N2CCN(CC3(F)CCOCC3)CC2)nc2nc(-c3ccco3)nn12 [Example 389, (S)-(1-(7-amino-2-(furan-2-yl)-[1,2,4]triazolo[1,5-a][1,3,5]triazin-5-yl)pyrrolidin-2-yl)(4-((4-fluorotetrahydro-2H-pyran-4-yl)methyl)piperazin-1-yl)methanone] | 7
2 | CC(C)C[C@H](Nc1nc(N)n2nc(-c3ccco3)nc2n1)C(=O)N1CCN(c2ccc(F)cc2F)CC1 [Example 167, (S)-2-((7-amino-2-(furan-2-yl)-[1,2,4]triazolo[1,5-a][1,3,5]triazin-5-yl)amino)-1-(4-(2,4-difluorophenyl)piperazin-1-yl)-4-methylpentan-1-one] | 0.2
3 | CC(C)OCCN1CCN(C(=O)[C@@H]2CCCN2c2nc(N)n3nc(-c4ccco4)nc3n2)CC1 [Example 140, (S)-(1-(7-amino-2-(furan-2-yl)-[1,2,4]triazolo[1,5-a][1,3,5]triazin-5-yl)pyrrolidin-2-yl)(4-(2-isopropoxyethyl)piperazin-1-yl)methanone] | 10
4 | Nc1nc(N[C@@H](Cc2ccccc2)C(=O)N2CCC(N3CCOCC3)CC2)nc2nc(-c3ccco3)nn12 [Example 19, (S)-2-((7-amino-2-(furan-2-yl)-[1,2,4]triazolo[1,5-a][1,3,5]triazin-5-yl)amino)-1-(4-morpholinopiperidin-1-yl)-3-phenylpropan-1-one] | 15
5 | CC1CN(C(=O)[C@@H]2CCCN2c2nc(N)n3nc(-c4ccco4)nc3n2)CC(C)N1Cc1ccc(F)cc1F (stereo partly drawn) [Example 49, ((S)-1-(7-amino-2-(furan-2-yl)-[1,2,4]triazolo[1,5-a][1,3,5]triazin-5-yl)pyrrolidin-2-yl)(4-(2,4-difluorobenzyl)-3,5-dimethylpiperazin-1-yl)methanone] | 3
6 | CC(C)(F)CN1CCC(C2CCN(C(=O)[C@@H]3CCN3c3cc4nc(-c5ccco5)nn4c(N)n3)CC2)CC1 [Example 382, (S)-(1-(5-amino-2-(furan-2-yl)-[1,2,4]triazolo[1,5-c]pyrimidin-7-yl)azetidin-2-yl)(1′-(2-fluoro-2-methylpropyl)-[4,4′-bipiperidin]-1-yl)methanone] | 3
7 | Nc1nc(N2CCC[C@@H]2C(=O)N2CCN(c3ccc(F)cc3F)CC2)nc2nc(-c3ccco3)nn12 [Example 97, (R)-(1-(7-amino-2-(furan-2-yl)-[1,2,4]triazolo[1,5-a][1,3,5]triazin-5-yl)pyrrolidin-2-yl)(4-(2,4-difluorophenyl)piperazin-1-yl)methanone] | 3350
8 | CC[C@H](Nc1nc(N)n2nc(-c3ccco3)nc2n1)C(=O)N1CCN(CC(C)(F)F)CC1 [Example 356, (S)-2-((7-amino-2-(furan-2-yl)-[1,2,4]triazolo[1,5-a][1,3,5]triazin-5-yl)amino)-1-(4-(2,2-difluoropropyl)piperazin-1-yl)butan-1-one] | 10
9 | Nc1nc(N2CCC[C@H]2C(=O)N2CCCN(CC(F)(F)F)CC2)nc2nc(-c3ccco3)nn12 [Example 278, (S)-(1-(7-amino-2-(furan-2-yl)-[1,2,4]triazolo[1,5-a][1,3,5]triazin-5-yl)pyrrolidin-2-yl)(4-(2,2,2-trifluoroethyl)-1,4-diazepan-1-yl)methanone] | 20
10 | CC(C)[C@H](Nc1nc(N)n2nc(-c3ccco3)nc2n1)C(=O)N1CCN(CC(F)(F)F)CC1 [Example 144, (S)-2-((7-amino-2-(furan-2-yl)-[1,2,4]triazolo[1,5-a][1,3,5]triazin-5-yl)amino)-3-methyl-1-(4-(2,2,2-trifluoroethyl)piperazin-1-yl)butan-1-one] | 14
11 | Cc1ccc(-c2nc3nc(N4CC[C@H]4C(=O)N4CCN(CC(C)(F)F)CC4)nc(N)n3n2)o1 [Example 314, (S)-(1-(7-amino-2-(5-methylfuran-2-yl)-[1,2,4]triazolo[1,5-a][1,3,5]triazin-5-yl)azetidin-2-yl)(4-(2,2-difluoropropyl)piperazin-1-yl)methanone] | 19
12 | CCC(O)(CC)CN1CCN(C(=O)[C@@H]2CCCN2c2nc(N)n3nc(-c4ccco4)nc3n2)CC1 [Example 42, (S)-(1-(7-amino-2-(furan-2-yl)-[1,2,4]triazolo[1,5-a][1,3,5]triazin-5-yl)pyrrolidin-2-yl)(4-(2-ethyl-2-hydroxybutyl)piperazin-1-yl)methanone] | 11
13 | CCCCN1CCN(C(=O)[C@@H]2CCCN2c2nc(N)n3nc(-c4ccc(C)o4)nc3n2)CC1 [Example 189, (S)-(1-(7-amino-2-(5-methylfuran-2-yl)-[1,2,4]triazolo[1,5-a][1,3,5]triazin-5-yl)pyrrolidin-2-yl)(4-butylpiperazin-1-yl)methanone] | 9
14 | CN1CCN(C(=O)[C@@H]2CCCN2c2nc(N)n3nc(-c4ccco4)nc3n2)CC1 [Example 134, (S)-(1-(7-amino-2-(furan-2-yl)-[1,2,4]triazolo[1,5-a][1,3,5]triazin-5-yl)pyrrolidin-2-yl)(4-methylpiperazin-1-yl)methanone] | 86

The remaining molecules from weak to strong by IC50, led by results:

Row | IC50 [nM] | Compound
15 | 18 | Nc1nc(N2CCC[C@H]2C(=O)N2CCN(C3COC3)CC2)cc2nc(-c3ccco3)nn12 [Example 404]
16 | 16 | Cc1ccc(-c2nc3nc(N4CC[C@H]4C(=O)N4CCN(C(=O)CC(C)(C)O)CC4)nc(N)n3n2)o1 [Example 315, (S)-1-(4-(1-(7-amino-2-(5-methylfuran-2-yl)-[1,2,4]triazolo[1,5-a][1,3,5]triazin-5-yl)azetidine-2-carbonyl)piperazin-1-yl)-3-hydroxy-3-methylbutan-1-one]
17 | 16 | Nc1nc(N2CCC[C@H]2C(=O)N2CCN(C(=O)c3ccc(C(F)(F)F)cn3)CC2)nc2nc(-c3ccco3)nn12 [Example 83]
18 | 14 | Nc1nc(N2CCC[C@H]2C(=O)N2CCN(C(=O)c3ccc(F)cc3F)CC2)nc2nc(-c3ccco3)nn12 [Example 64, (4-((7-amino-2-(furan-2-yl)-[1,2,4]triazolo[1,5-a][1,3,5]triazin-5-yl)-L-prolyl)piperazin-1-yl)(2,4-difluorophenyl)methanone]
19 | 14 | CC(C)[C@H](Nc1nc(N)n2nc(-c3ccco3)nc2n1)C(=O)N1CCN(CC(F)F)CC1 [Example 355, (S)-2-((7-amino-2-(furan-2-yl)-[1,2,4]triazolo[1,5-a][1,3,5]triazin-5-yl)amino)-1-(4-(2,2-difluoroethyl)piperazin-1-yl)-3-methylbutan-1-one]
20 | 11 | Nc1nc(N2CCC[C@H]2C(=O)N2CCN(C3CCC(C(F)(F)F)CC3)CC2)nc2nc(-c3ccco3)nn12 (stereo partly drawn) [Example 155, (S)-(1-(7-amino-2-(furan-2-yl)-[1,2,4]triazolo[1,5-a][1,3,5]triazin-5-yl)pyrrolidin-2-yl)(4-(4-(trifluoromethyl)cyclohexyl)piperazin-1-yl)methanone]
21 | 11 | C[C@@H]1CN(CC(F)F)CCN1C(=O)[C@@H]1CCCN1c1nc(N)n2nc(-c3ccco3)nc2n1 [Example 371, ((S)-1-(7-amino-2-(furan-2-yl)-[1,2,4]triazolo[1,5-a][1,3,5]triazin-5-yl)pyrrolidin-2-yl)((R)-4-(2,2-difluoroethyl)-2-methylpiperazin-1-yl)methanone]
22 | 11 | CC(C)NC(=O)N1CCN(C(=O)[C@@H]2CCCN2c2nc(N)n3nc(-c4ccco4)nc3n2)CC1 [Example 116, 4-((7-amino-2-(furan-2-yl)-[1,2,4]triazolo[1,5-a][1,3,5]triazin-5-yl)-L-prolyl)-N-isopropylpiperazin-1-carboxamide]
23 | 8 | Cc1ccc(-c2nc3nc(N4CCC[C@H]4C(=O)N4CCN(c5ccccc5)C(=O)C4)nc(N)n3n2)o1 [Example 198, 4-((7-amino-2-(5-methylfuran-2-yl)-[1,2,4]triazolo[1,5-a][1,3,5]triazin-5-yl)-L-prolyl)-1-phenylpiperazin-2-one]
24 | 8 | Nc1nc(N2CC[C@H]2C(=O)N2CCC(C3CCN(CC(F)(F)C(F)F)CC3)CC2)nc2nc(-c3ccco3)nn12 [Example 325, (S)-(1-(7-amino-2-(furan-2-yl)-[1,2,4]triazolo[1,5-a][1,3,5]triazin-5-yl)azetidin-2-yl)(1′-(2,2,3,3-tetrafluoropropyl)-[4,4′-bipiperidin]-1-yl)methanone]
25 | 5 | CC(C)(O)CC(=O)N1CCN(C(=O)[C@@H]2CCCN2c2nc(N)c3nc(-c4ccco4)sc3n2)CC1 [Example 262, 1-(4-((7-amino-2-(furan-2-yl)thiazolo[5,4-d]pyrimidin-5-yl)-L-prolyl)piperazin-1-yl)-3-hydroxy-3-methylbutan-1-one]
26 | 3 | Nc1nc(N2CCC[C@H]2C(=O)N2CCN(c3ccc(F)cc3F)CC2)nc2nc(-c3nccs3)nn12 [Example 67, (S)-(1-(7-amino-2-(thiazol-2-yl)-[1,2,4]triazolo[1,5-a][1,3,5]triazin-5-yl)pyrrolidin-2-yl)(4-(2,4-difluorophenyl)piperazin-1-yl)methanone]
27 | 2 | Cc1ccc(-c2nc3nc(N4CC[C@H]4C(=O)N4CCN(CC(F)(F)C(F)F)CC4)nc(N)n3n2)o1 [Example 312, (S)-(1-(7-amino-2-(5-methylfuran-2-yl)-[1,2,4]triazolo[1,5-a][1,3,5]triazin-5-yl)azetidin-2-y1)(4-(2,2,3,3-tetrafluoropropyl)piperazin-1-yl)methanone]
28 | 2 | CC(C)(O)CC(=O)N1CCC(C2CCN(C(=O)[C@@H]3CCCN3c3nc(N)n4nc(-c5ccco5)nc4n3)CC2)CC1 [Example 290, 1-(1′-((7-amino-2-(furan-2-yl)-[1,2,4]triazolo[1,5-a][1,3,5]triazin-5-yl)-L-prolyl)-[4,4′-bipiperidin]-1-yl)-3-hydroxy-3-methylbutan-1-one]
29 | 0.4 | Nc1nc(N2CCC[C@H]2C(=O)N2CCN(C(=O)C3(C(F)(F)F)CCCCC3)CC2)nc2nc(-c3ccco3)nn12 [Example 77]
30 | 0.1 | Nc1nc(N[C@H](C(=O)N2CCN(c3ccc(F)cc3F)CC2)C2CCC2)nc2nc(-c3ccco3)nn12 [Example 169, (S)-2-((7-amino-2-(furan-2-yl)-[1,2,4]triazolo[1,5-a][1,3,5]triazin-5-yl)amino)-2-cyclobutyl-1-(4-(2,4-difluorophenyl)piperazin-1-yl)ethan-1-one]
